Experimental data: the NIST ThermoML archive (doi:10.1021/acs.jced.5b00051)
Numbers after ± are expanded uncertainties.

Test: molar heat capacity at constant pressure
Settings: 101.33 kPa, Liquid, Large sample (1 g) DSC

Row | Structure (SMILES) | molar heat capacity at constant pressure (275.15 K) [J/K/mol] | molar heat capacity at constant pressure (277.15 K) [J/K/mol] | molar heat capacity at constant pressure (279.15 K) [J/K/mol] | molar heat capacity at constant pressure (281.15 K) [J/K/mol] | molar heat capacity at constant pressure (283.15 K) [J/K/mol] | molar heat capacity at constant pressure (285.15 K) [J/K/mol] | molar heat capacity at constant pressure (287.15 K) [J/K/mol] | molar heat capacity at constant pressure (289.15 K) [J/K/mol] | molar heat capacity at constant pressure (291.15 K) [J/K/mol] | molar heat capacity at constant pressure (293.15 K) [J/K/mol] | molar heat capacity at constant pressure (295.15 K) [J/K/mol] | molar heat capacity at constant pressure (297.15 K) [J/K/mol] | molar heat capacity at constant pressure (298.15 K) [J/K/mol] | molar heat capacity at constant pressure (299.15 K) [J/K/mol] | molar heat capacity at constant pressure (301.15 K) [J/K/mol] | molar heat capacity at constant pressure (303.15 K) [J/K/mol] | molar heat capacity at constant pressure (305.15 K) [J/K/mol] | molar heat capacity at constant pressure (307.15 K) [J/K/mol] | molar heat capacity at constant pressure (309.15 K) [J/K/mol] | molar heat capacity at constant pressure (311.15 K) [J/K/mol] | further results
1 | COCCOCCO [2-(2-methoxyethoxy)ethanol] | 261.9 ± 4.1 | 262.3 ± 4.1 | 262.7 ± 4.1 | 263.2 ± 4.1 | 263.6 ± 4.1 | 264.1 ± 4.1 | 264.6 ± 4.1 | 265.1 ± 4.1 | 265.6 ± 4.1 | 266.1 ± 4.1 | 266.6 ± 4.1 | 267.1 ± 4.1 | 267.4 ± 4.1 | 267.6 ± 4.1 | 268.2 ± 4.2 | 268.7 ± 4.2 | 269.3 ± 4.2 | 269.8 ± 4.2 | 270.4 ± 4.2 | 271 ± 4.2 | molar heat capacity at constant pressure (313.15 K): 271.6 ± 4.2 J/K/mol; molar heat capacity at constant pressure (315.15 K): 272.2 ± 4.2 J/K/mol; molar heat capacity at constant pressure (317.15 K): 272.8 ± 4.2 J/K/mol; molar heat capacity at constant pressure (319.15 K): 273.4 ± 4.2 J/K/mol; molar heat capacity at constant pressure (321.15 K): 274 ± 4.2 J/K/mol; molar heat capacity at constant pressure (323.15 K): 274.7 ± 4.3 J/K/mol; molar heat capacity at constant pressure (325.15 K): 275.3 ± 4.3 J/K/mol; molar heat capacity at constant pressure (327.15 K): 276 ± 4.3 J/K/mol; molar heat capacity at constant pressure (329.15 K): 276.6 ± 4.3 J/K/mol; molar heat capacity at constant pressure (331.15 K): 277.3 ± 4.3 J/K/mol; molar heat capacity at constant pressure (333.15 K): 278 ± 4.3 J/K/mol; molar heat capacity at constant pressure (335.15 K): 278.7 ± 4.3 J/K/mol; molar heat capacity at constant pressure (337.15 K): 279.4 ± 4.3 J/K/mol; molar heat capacity at constant pressure (339.15 K): 280.1 ± 4.3 J/K/mol
2 | COCCOCCOCCO [2-[2-(2-methoxyethoxy)ethoxy]ethanol] | 352.2 ± 5.5 | 352.6 ± 5.5 | 352.9 ± 5.5 | 353.2 ± 5.5 | 353.6 ± 5.5 | 353.9 ± 5.5 | 354.3 ± 5.5 | 354.7 ± 5.5 | 355.1 ± 5.5 | 355.5 ± 5.5 | 355.9 ± 5.5 | 356.3 ± 5.5 | 356.6 ± 5.5 | 356.8 ± 5.5 | 357.2 ± 5.5 | 357.7 ± 5.5 | 358.1 ± 5.5 | 358.6 ± 5.6 | 359.1 ± 5.6 | 359.6 ± 5.6 | molar heat capacity at constant pressure (313.15 K): 360.1 ± 5.6 J/K/mol; molar heat capacity at constant pressure (315.15 K): 360.6 ± 5.6 J/K/mol; molar heat capacity at constant pressure (317.15 K): 361.2 ± 5.6 J/K/mol; molar heat capacity at constant pressure (319.15 K): 361.7 ± 5.6 J/K/mol; molar heat capacity at constant pressure (321.15 K): 362.2 ± 5.6 J/K/mol; molar heat capacity at constant pressure (323.15 K): 362.8 ± 5.6 J/K/mol; molar heat capacity at constant pressure (325.15 K): 363.4 ± 5.6 J/K/mol; molar heat capacity at constant pressure (327.15 K): 364 ± 5.6 J/K/mol; molar heat capacity at constant pressure (329.15 K): 364.5 ± 5.6 J/K/mol; molar heat capacity at constant pressure (331.15 K): 365.1 ± 5.7 J/K/mol; molar heat capacity at constant pressure (333.15 K): 365.8 ± 5.7 J/K/mol; molar heat capacity at constant pressure (335.15 K): 366.4 ± 5.7 J/K/mol; molar heat capacity at constant pressure (337.15 K): 367 ± 5.7 J/K/mol; molar heat capacity at constant pressure (339.15 K): 367.6 ± 5.7 J/K/mol
3 | CCCCCCOCCOCCO [2-(2-hexyloxyethoxy)ethanol] | 411.2 ± 6.4 | 412 ± 6.4 | 412.8 ± 6.4 | 413.6 ± 6.4 | 414.4 ± 6.4 | 415.3 ± 6.4 | 416.1 ± 6.4 | 417 ± 6.5 | 417.9 ± 6.5 | 418.7 ± 6.5 | 419.6 ± 6.5 | 420.5 ± 6.5 | 421 ± 6.5 | 421.4 ± 6.5 | 422.3 ± 6.5 | 423.2 ± 6.6 | 424.2 ± 6.6 | 425.1 ± 6.6 | 426 ± 6.6 | 427 ± 6.6 | molar heat capacity at constant pressure (313.15 K): 428 ± 6.6 J/K/mol; molar heat capacity at constant pressure (315.15 K): 428.9 ± 6.6 J/K/mol; molar heat capacity at constant pressure (317.15 K): 429.9 ± 6.7 J/K/mol; molar heat capacity at constant pressure (319.15 K): 430.9 ± 6.7 J/K/mol; molar heat capacity at constant pressure (321.15 K): 431.9 ± 6.7 J/K/mol; molar heat capacity at constant pressure (323.15 K): 432.9 ± 6.7 J/K/mol; molar heat capacity at constant pressure (325.15 K): 433.9 ± 6.7 J/K/mol; molar heat capacity at constant pressure (327.15 K): 434.9 ± 6.7 J/K/mol; molar heat capacity at constant pressure (329.15 K): 436 ± 6.8 J/K/mol; molar heat capacity at constant pressure (331.15 K): 437 ± 6.8 J/K/mol; molar heat capacity at constant pressure (333.15 K): 438 ± 6.8 J/K/mol; molar heat capacity at constant pressure (335.15 K): 439.1 ± 6.8 J/K/mol; molar heat capacity at constant pressure (337.15 K): 440.2 ± 6.8 J/K/mol; molar heat capacity at constant pressure (339.15 K): 441.2 ± 6.8 J/K/mol
4 | CCCCOCCO [2-butoxyethan-1-ol] | 261.7 ± 4.1 | 262.6 ± 4.1 | 263.6 ± 4.1 | 264.6 ± 4.1 | 265.6 ± 4.1 | 266.6 ± 4.1 | 267.6 ± 4.1 | 268.5 ± 4.2 | 269.5 ± 4.2 | 270.5 ± 4.2 | 271.5 ± 4.2 | 272.5 ± 4.2 | 273 ± 4.2 | 273.5 ± 4.2 | 274.5 ± 4.3 | 275.5 ± 4.3 | 276.5 ± 4.3 | 277.5 ± 4.3 | 278.5 ± 4.3 | 279.5 ± 4.3 | molar heat capacity at constant pressure (313.15 K): 280.5 ± 4.3 J/K/mol; molar heat capacity at constant pressure (315.15 K): 281.5 ± 4.4 J/K/mol; molar heat capacity at constant pressure (317.15 K): 282.5 ± 4.4 J/K/mol; molar heat capacity at constant pressure (319.15 K): 283.5 ± 4.4 J/K/mol; molar heat capacity at constant pressure (321.15 K): 284.5 ± 4.4 J/K/mol; molar heat capacity at constant pressure (323.15 K): 285.5 ± 4.4 J/K/mol; molar heat capacity at constant pressure (325.15 K): 286.5 ± 4.4 J/K/mol; molar heat capacity at constant pressure (327.15 K): 287.5 ± 4.5 J/K/mol; molar heat capacity at constant pressure (329.15 K): 288.5 ± 4.5 J/K/mol; molar heat capacity at constant pressure (331.15 K): 289.6 ± 4.5 J/K/mol; molar heat capacity at constant pressure (333.15 K): 290.6 ± 4.5 J/K/mol; molar heat capacity at constant pressure (335.15 K): 291.6 ± 4.5 J/K/mol; molar heat capacity at constant pressure (337.15 K): 292.6 ± 4.5 J/K/mol; molar heat capacity at constant pressure (339.15 K): 293.6 ± 4.5 J/K/mol
5 | CCCOCCOCCO [2-(2-propoxyethoxy)ethanol] | 321.3 ± 5 | 322 ± 5 | 322.6 ± 5 | 323.3 ± 5 | 324 ± 5 | 324.7 ± 5 | 325.4 ± 5 | 326.1 ± 5.1 | 326.8 ± 5.1 | 327.5 ± 5.1 | 328.2 ± 5.1 | 329 ± 5.1 | 329.4 ± 5.1 | 329.7 ± 5.1 | 330.5 ± 5.1 | 331.3 ± 5.1 | 332 ± 5.1 | 332.8 ± 5.2 | 333.6 ± 5.2 | 334.4 ± 5.2 | molar heat capacity at constant pressure (313.15 K): 335.2 ± 5.2 J/K/mol; molar heat capacity at constant pressure (315.15 K): 336 ± 5.2 J/K/mol; molar heat capacity at constant pressure (317.15 K): 336.9 ± 5.2 J/K/mol; molar heat capacity at constant pressure (319.15 K): 337.7 ± 5.2 J/K/mol; molar heat capacity at constant pressure (321.15 K): 338.5 ± 5.2 J/K/mol; molar heat capacity at constant pressure (323.15 K): 339.4 ± 5.3 J/K/mol; molar heat capacity at constant pressure (325.15 K): 340.3 ± 5.3 J/K/mol; molar heat capacity at constant pressure (327.15 K): 341.1 ± 5.3 J/K/mol; molar heat capacity at constant pressure (329.15 K): 342 ± 5.3 J/K/mol; molar heat capacity at constant pressure (331.15 K): 342.9 ± 5.3 J/K/mol; molar heat capacity at constant pressure (333.15 K): 343.8 ± 5.3 J/K/mol; molar heat capacity at constant pressure (335.15 K): 344.7 ± 5.3 J/K/mol; molar heat capacity at constant pressure (337.15 K): 345.6 ± 5.4 J/K/mol; molar heat capacity at constant pressure (339.15 K): 346.5 ± 5.4 J/K/mol
6 | CCCCOCCOCCO [3,6-dioxa-1-decanol] | 351.2 ± 5.4 | 351.9 ± 5.5 | 352.7 ± 5.5 | 353.4 ± 5.5 | 354.2 ± 5.5 | 354.9 ± 5.5 | 355.7 ± 5.5 | 356.5 ± 5.5 | 357.3 ± 5.5 | 358.1 ± 5.5 | 359 ± 5.6 | 359.8 ± 5.6 | 360.2 ± 5.6 | 360.6 ± 5.6 | 361.5 ± 5.6 | 362.4 ± 5.6 | 363.3 ± 5.6 | 364.2 ± 5.6 | 365.1 ± 5.7 | 366 ± 5.7 | molar heat capacity at constant pressure (313.15 K): 366.9 ± 5.7 J/K/mol; molar heat capacity at constant pressure (315.15 K): 367.9 ± 5.7 J/K/mol; molar heat capacity at constant pressure (317.15 K): 368.8 ± 5.7 J/K/mol; molar heat capacity at constant pressure (319.15 K): 369.8 ± 5.7 J/K/mol; molar heat capacity at constant pressure (321.15 K): 370.8 ± 5.7 J/K/mol; molar heat capacity at constant pressure (323.15 K): 371.8 ± 5.8 J/K/mol; molar heat capacity at constant pressure (325.15 K): 372.8 ± 5.8 J/K/mol; molar heat capacity at constant pressure (327.15 K): 373.8 ± 5.8 J/K/mol; molar heat capacity at constant pressure (329.15 K): 374.8 ± 5.8 J/K/mol; molar heat capacity at constant pressure (331.15 K): 375.8 ± 5.8 J/K/mol; molar heat capacity at constant pressure (333.15 K): 376.9 ± 5.8 J/K/mol; molar heat capacity at constant pressure (335.15 K): 377.9 ± 5.9 J/K/mol; molar heat capacity at constant pressure (337.15 K): 379 ± 5.9 J/K/mol; molar heat capacity at constant pressure (339.15 K): 380.1 ± 5.9 J/K/mol
7 | CCOCCO [2-ethoxyethan-1-ol] | 203.3 ± 3.2 | 204 ± 3.2 | 204.6 ± 3.2 | 205.3 ± 3.2 | 205.9 ± 3.2 | 206.6 ± 3.2 | 207.3 ± 3.2 | 208 ± 3.2 | 208.6 ± 3.2 | 209.3 ± 3.2 | 210 ± 3.3 | 210.7 ± 3.3 | 211.1 ± 3.3 | 211.4 ± 3.3 | 212.1 ± 3.3 | 212.8 ± 3.3 | 213.6 ± 3.3 | 214.3 ± 3.3 | 215 ± 3.3 | 215.7 ± 3.3 | molar heat capacity at constant pressure (313.15 K): 216.5 ± 3.4 J/K/mol; molar heat capacity at constant pressure (315.15 K): 217.2 ± 3.4 J/K/mol; molar heat capacity at constant pressure (317.15 K): 218 ± 3.4 J/K/mol; molar heat capacity at constant pressure (319.15 K): 218.7 ± 3.4 J/K/mol; molar heat capacity at constant pressure (321.15 K): 219.5 ± 3.4 J/K/mol; molar heat capacity at constant pressure (323.15 K): 220.2 ± 3.4 J/K/mol; molar heat capacity at constant pressure (325.15 K): 221 ± 3.4 J/K/mol; molar heat capacity at constant pressure (327.15 K): 221.8 ± 3.4 J/K/mol; molar heat capacity at constant pressure (329.15 K): 222.6 ± 3.4 J/K/mol; molar heat capacity at constant pressure (331.15 K): 223.3 ± 3.5 J/K/mol; molar heat capacity at constant pressure (333.15 K): 224.1 ± 3.5 J/K/mol; molar heat capacity at constant pressure (335.15 K): 224.9 ± 3.5 J/K/mol; molar heat capacity at constant pressure (337.15 K): 225.7 ± 3.5 J/K/mol; molar heat capacity at constant pressure (339.15 K): 226.5 ± 3.5 J/K/mol
